Results: ChEMBL document CHEMBL1275428, “First case of emergence of atovaquone-proguanil resistance in Plasmodium falciparum during treatment in a traveler in Comoros” (Antimicrob Agents Chemother, 2008)

The molecules below were run on Plasmodium falciparum (assay: microbe, parasite or virus in culture). Details: not given.
Molecule `CC1(C)N=C(N)N=C(N)N1c1ccc(Cl)cc1` [CYCLOGUANIL] has an IC50 of 250 nM. `CCNCc1cc(Nc2ccnc3cc(Cl)ccc23)ccc1O` [DESETHYL AMODIAQUINE] gave an IC50 of 30.5 nM. For `CCCCN(CCCC)CC(O)c1cc(Cl)cc2c1-c1ccc(Cl)cc1/C2=C/c1ccc(Cl)cc1` (stereo unspecified) [LUMEFANTRINE], the IC50 was 15.2 nM. For `OC(c1cc(C(F)(F)F)nc2c(C(F)(F)F)cccc12)C1CCCCN1` (stereo unspecified) [MEFLOQUINE], the IC50 was 34.1 nM. For `CCc1nc(N)nc(N)c1-c1ccc(Cl)cc1` [PYRIMETHAMINE], the IC50 was 2510 nM.

The molecules below were run on Plasmodium falciparum (assay: not given). Details: 552 h.
Assay type: functional, organism-based
`O=C1C(O)=C([C@H]2CC[C@H](c3ccc(Cl)cc3)CC2)C(=O)c2ccccc21` [ATOVAQUONE] was tested, and the IC50 was 390 nM.
